Laboratory results from ChEMBL document CHEMBL1130604, “Synthesis and biological activity of novel thiazolidinediones” (1998).
Activity calls are given as the source filed them. No cut-off for these calls is given here.

Assays:
[1] = test system: Mus musculus; assay: Compound was tested for antidiabetic activity by measuring percentage reduction in plasma glucose at a dose of 30 mg/kg; type: functional
[2] = test system: Mus musculus; assay: Compound was tested for antidiabetic activity by measuring percentage reduction in triglycerides at a dose of 30 mg/kg; type: functional
[3] = test system: Rattus norvegicus; assay: Compound was tested for antiinflammatory activity by measuring percentage reduction in inflammation at a dose of 100 mg/kg in rats; type: functional
[4] = test system: Mus musculus; assay: Compound was tested for antidiabetic activity by measuring percentage reduction in triglycerides at a dose of 30 mg/kg; NE=No effect; type: functional, organism-based; set-up: dose 30 mg/kg
[5] = test system: Mus musculus; assay: Compound was tested for antidiabetic activity by measuring percentage reduction in plasma glucose at a dose of 30 mg/kg; NE=No effect; type: functional, organism-based; set-up: dose 30 mg/kg
[6] = test system: Rattus norvegicus; assay: Compound was tested for antiinflammatory activity by measuring percentage reduction in inflammation at a dose of 100 mg/kg in rats; NE=No effect; type: functional, organism-based; set-up: dose 100 mg/kg

Structure (SMILES): COc1ccc2cc(CCC(C)C3SC(=O)NC3=O)ccc2c1 (stereo unspecified)
- Reduction [1]: 8%
- Reduction [2]: 44%
- Reduction [3]: 17%

Structure (SMILES): COc1ccc2cc(/C(C)=C3/SC(=O)NC3=O)ccc2c1
- Reduction [1]: 26%
- Reduction [4]: inactive
- Reduction [3]: 7%

Structure (SMILES): O=C1NC(=O)C(Cc2ccc3cc(OCc4ccccc4F)ccc3c2)S1 (stereo unspecified) [NETOGLITAZONE]
- Reduction [1]: 60%
- Reduction [2]: 72%
- Reduction [3]: 18%

Structure (SMILES): C/C(=C1/SC(=O)NC1=O)c1cccs1
- Reduction [5]: inactive
- Reduction [2]: 18%
- Reduction [6]: inactive

Structure (SMILES): COc1ccc2cc(CC/C(C)=C3/SC(=O)NC3=O)ccc2c1
- Reduction [1]: 16%
- Reduction [2]: 50%
- Reduction [3]: 10%

Structure (SMILES): C/C(=C1\SC(=O)NC1=O)c1ccco1
- Reduction [1]: 16%
- Reduction [4]: inactive
- Reduction [3]: 12%

Structure (SMILES): COc1ccc2cc(CCC(C)=O)ccc2c1 [NABUMETONE]
- Reduction [5]: inactive
- Reduction [4]: inactive
- Reduction [3]: 30%

Structure (SMILES): COc1ccc2cc(/C(CC(C)=O)=C3/SC(=O)NC3=O)ccc2c1
- Reduction [5]: inactive
- Reduction [4]: inactive
- Reduction [3]: 7%

Structure (SMILES): C/C(CCc1ccc2cc(OCC3(C)CCc4c(C)c(O)c(C)c(C)c4O3)ccc2c1)=C1/SC(=O)NC1=O (stereo unspecified)
- Reduction [5]: inactive
- Reduction [4]: inactive
- Reduction [3]: 12%

Structure (SMILES): Cc1c(C)c2c(c(C)c1O)CCC(C)(COc1ccc(CC3SC(=O)NC3=O)cc1)O2 (stereo unspecified) [TROGLITAZONE]
- Reduction [1]: 16%
- Reduction [2]: 50%
- Reduction [3]: 3%

Structure (SMILES): COc1ccc2cc(/C(CC(C)=O)=C3\SC(=O)NC3=O)ccc2c1
- Reduction [1]: 16%
- Reduction [4]: inactive
- Reduction [3]: 25%

Structure (SMILES): C/C(CCc1ccc2cc(O)ccc2c1)=C1\SC(=O)NC1=O
- Reduction [1]: 20%
- Reduction [4]: inactive
- Reduction [6]: inactive
